Two molecules from ChEMBL document CHEMBL4507268 (2021) can be followed below.

Assay [1] has as its target Calcium/calmodulin-dependent protein kinase type 1D (Homo sapiens) (UniProt Q8IU85). Particulars: Compound concentration 1000.0 nM.
For assay [2], the target named is Cyclin-dependent kinase 7 (Homo sapiens) (UniProt P50613). Particulars: Compound concentration 1000.0 nM.
Assay [3] has as its target Focal adhesion kinase 1 (Homo sapiens) (UniProt Q05397). The note with it: Compound concentration 1000.0 nM.
The target in assay [4] is Receptor-type tyrosine-protein kinase FLT3 (Homo sapiens) (UniProt P36888). The note with it: Compound concentration 1000.0 nM.
Assay [5] concerns the target Tyrosine-protein kinase HCK (Homo sapiens) (UniProt P08631). The note with it: Compound concentration 1000.0 nM.
In assay [6] the target is T1, Serine/threonine-protein kinase ICK (Homo sapiens) (UniProt Q9UPZ9).
T1 sequence (whole entry): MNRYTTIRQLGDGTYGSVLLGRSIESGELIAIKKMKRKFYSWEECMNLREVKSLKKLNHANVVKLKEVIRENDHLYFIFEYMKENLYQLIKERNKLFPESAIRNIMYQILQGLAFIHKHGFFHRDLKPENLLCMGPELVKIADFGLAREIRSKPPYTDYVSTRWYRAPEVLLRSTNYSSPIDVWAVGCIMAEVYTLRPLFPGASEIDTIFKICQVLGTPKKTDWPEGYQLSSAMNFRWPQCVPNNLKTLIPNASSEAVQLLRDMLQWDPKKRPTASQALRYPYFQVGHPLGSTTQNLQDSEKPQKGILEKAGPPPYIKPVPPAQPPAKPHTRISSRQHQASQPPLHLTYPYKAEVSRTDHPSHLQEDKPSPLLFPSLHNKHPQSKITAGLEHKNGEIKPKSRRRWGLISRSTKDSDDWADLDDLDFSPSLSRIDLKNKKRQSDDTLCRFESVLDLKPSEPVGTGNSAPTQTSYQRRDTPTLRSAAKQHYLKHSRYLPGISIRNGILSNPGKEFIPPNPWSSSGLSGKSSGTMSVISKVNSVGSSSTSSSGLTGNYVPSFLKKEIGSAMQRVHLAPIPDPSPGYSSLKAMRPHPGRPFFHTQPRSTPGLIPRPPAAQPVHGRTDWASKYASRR
Particulars: Compound concentration 1000.0 nM.

For assay [7], the target named is Maternal embryonic leucine zipper kinase (Homo sapiens) (UniProt Q14680). Particulars: Compound concentration 1000.0 nM.
The target in assay [8] is Misshapen-like kinase 1 (Homo sapiens) (UniProt Q8N4C8). The note with it: Compound concentration 1000.0 nM.
Assay [9] deals with Myosin light chain kinase 2, skeletal/cardiac muscle (Homo sapiens) (UniProt Q9H1R3). Particulars: Compound concentration 1000.0 nM.
Assay [10] deals with T2, Serine/threonine-protein kinase PLK4 (Homo sapiens) (UniProt O00444).
T2 sequence (whole entry): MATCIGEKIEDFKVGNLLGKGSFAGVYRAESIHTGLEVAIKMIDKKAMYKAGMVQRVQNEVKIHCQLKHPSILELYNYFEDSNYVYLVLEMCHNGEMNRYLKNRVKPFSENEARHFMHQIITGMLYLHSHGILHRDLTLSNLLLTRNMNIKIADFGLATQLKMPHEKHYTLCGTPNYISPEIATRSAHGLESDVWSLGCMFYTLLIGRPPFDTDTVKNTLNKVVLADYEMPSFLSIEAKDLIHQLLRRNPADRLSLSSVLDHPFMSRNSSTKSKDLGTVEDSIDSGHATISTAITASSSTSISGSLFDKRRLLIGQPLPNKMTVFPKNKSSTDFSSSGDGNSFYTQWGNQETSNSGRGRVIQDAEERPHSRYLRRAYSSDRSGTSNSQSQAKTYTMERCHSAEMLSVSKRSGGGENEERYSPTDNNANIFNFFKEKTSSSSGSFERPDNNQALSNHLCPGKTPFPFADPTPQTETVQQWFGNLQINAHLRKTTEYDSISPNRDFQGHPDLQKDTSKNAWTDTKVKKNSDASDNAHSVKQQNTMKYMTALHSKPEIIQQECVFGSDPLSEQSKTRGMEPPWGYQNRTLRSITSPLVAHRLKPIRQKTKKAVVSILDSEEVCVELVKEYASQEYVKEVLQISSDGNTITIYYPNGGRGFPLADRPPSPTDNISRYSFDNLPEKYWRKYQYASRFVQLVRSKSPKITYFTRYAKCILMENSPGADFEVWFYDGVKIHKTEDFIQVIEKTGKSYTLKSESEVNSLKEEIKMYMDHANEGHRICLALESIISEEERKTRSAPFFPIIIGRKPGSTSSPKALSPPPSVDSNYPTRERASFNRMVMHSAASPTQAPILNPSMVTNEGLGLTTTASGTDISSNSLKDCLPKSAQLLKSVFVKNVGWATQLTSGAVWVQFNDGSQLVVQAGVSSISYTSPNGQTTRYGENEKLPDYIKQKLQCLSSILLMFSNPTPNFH
Particulars: Compound concentration 1000.0 nM.

In assay [11] the target is Ribosomal protein S6 kinase alpha-5 (Homo sapiens) (UniProt O75582). Particulars: Compound concentration 1000.0 nM.
The target in assay [12] is Serine/threonine-protein kinase SIK1 (Homo sapiens) (UniProt P57059). The note with it: Compound concentration 1000.0 nM.
The target in assay [13] is 5-hydroxytryptamine receptor 1D (Homo sapiens) (UniProt P28221). Particulars: Compound concentration 10.0 uM.
The target of assay [14] is Histamine H1 receptor (Homo sapiens) (UniProt P35367). Particulars: Compound concentration 10.0 uM.
Assay [15] concerns the target Histamine H2 receptor (Homo sapiens) (UniProt P25021). Particulars: Compound concentration 10.0 uM.
Assay [16] deals with Sigma non-opioid intracellular receptor 1 (Homo sapiens, UniProt Q99720). Particulars: Compound concentration 10.0 uM.

Chain of 5-hydroxytryptamine receptor 1D (Homo sapiens) (P28221 whole entry): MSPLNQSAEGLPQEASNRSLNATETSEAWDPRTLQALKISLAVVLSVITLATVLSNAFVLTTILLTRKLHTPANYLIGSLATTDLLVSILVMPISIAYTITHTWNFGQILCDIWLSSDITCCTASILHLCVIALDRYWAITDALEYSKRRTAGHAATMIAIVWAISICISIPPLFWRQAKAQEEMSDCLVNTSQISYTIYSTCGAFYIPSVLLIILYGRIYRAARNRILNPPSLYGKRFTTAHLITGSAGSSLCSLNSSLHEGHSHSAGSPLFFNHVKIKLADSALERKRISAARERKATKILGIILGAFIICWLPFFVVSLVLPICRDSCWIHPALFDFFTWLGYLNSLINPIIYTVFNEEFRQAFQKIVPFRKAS
Chain of Histamine H1 receptor (Homo sapiens) (P35367 whole entry): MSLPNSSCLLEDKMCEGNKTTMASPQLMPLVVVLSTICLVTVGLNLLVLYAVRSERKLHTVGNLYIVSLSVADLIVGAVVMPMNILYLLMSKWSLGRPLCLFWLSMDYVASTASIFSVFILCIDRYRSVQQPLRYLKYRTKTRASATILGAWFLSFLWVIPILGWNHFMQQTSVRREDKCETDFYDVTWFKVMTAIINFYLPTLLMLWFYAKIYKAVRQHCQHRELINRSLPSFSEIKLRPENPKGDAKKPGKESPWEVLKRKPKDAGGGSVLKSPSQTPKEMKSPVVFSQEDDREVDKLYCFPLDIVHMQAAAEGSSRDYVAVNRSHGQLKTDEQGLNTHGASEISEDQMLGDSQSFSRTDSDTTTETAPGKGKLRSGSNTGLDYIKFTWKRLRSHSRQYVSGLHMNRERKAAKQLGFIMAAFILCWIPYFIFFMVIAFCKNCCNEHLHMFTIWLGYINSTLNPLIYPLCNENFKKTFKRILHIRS
Chain of Receptor-type tyrosine-protein kinase FLT3 (Homo sapiens) (P36888 whole entry): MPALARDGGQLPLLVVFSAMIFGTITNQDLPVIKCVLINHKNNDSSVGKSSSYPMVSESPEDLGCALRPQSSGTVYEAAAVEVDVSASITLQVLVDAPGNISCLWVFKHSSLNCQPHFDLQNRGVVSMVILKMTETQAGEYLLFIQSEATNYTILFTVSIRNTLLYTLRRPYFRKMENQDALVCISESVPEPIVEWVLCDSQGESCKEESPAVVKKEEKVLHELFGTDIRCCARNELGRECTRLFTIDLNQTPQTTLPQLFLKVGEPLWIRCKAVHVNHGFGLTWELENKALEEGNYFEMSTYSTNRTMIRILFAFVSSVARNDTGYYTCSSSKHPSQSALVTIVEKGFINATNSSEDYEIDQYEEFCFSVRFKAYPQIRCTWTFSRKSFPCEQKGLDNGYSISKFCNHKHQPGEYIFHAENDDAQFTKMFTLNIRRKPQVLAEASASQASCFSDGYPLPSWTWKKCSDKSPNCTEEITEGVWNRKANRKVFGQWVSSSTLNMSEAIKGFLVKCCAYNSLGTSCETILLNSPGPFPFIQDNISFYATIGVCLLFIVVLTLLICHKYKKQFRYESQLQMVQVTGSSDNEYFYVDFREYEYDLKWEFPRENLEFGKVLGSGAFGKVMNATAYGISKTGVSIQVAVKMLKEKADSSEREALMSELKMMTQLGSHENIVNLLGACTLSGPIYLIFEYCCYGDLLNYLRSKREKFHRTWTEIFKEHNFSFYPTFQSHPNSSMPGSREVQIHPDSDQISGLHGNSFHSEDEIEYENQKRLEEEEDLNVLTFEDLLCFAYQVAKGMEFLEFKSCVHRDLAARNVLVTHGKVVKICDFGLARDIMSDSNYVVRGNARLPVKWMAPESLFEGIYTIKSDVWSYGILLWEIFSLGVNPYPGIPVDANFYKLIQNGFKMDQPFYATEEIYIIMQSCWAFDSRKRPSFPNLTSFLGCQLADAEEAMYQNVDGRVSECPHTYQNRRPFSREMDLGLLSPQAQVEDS
Chain of Misshapen-like kinase 1 (Homo sapiens) (Q8N4C8 whole entry, looked up): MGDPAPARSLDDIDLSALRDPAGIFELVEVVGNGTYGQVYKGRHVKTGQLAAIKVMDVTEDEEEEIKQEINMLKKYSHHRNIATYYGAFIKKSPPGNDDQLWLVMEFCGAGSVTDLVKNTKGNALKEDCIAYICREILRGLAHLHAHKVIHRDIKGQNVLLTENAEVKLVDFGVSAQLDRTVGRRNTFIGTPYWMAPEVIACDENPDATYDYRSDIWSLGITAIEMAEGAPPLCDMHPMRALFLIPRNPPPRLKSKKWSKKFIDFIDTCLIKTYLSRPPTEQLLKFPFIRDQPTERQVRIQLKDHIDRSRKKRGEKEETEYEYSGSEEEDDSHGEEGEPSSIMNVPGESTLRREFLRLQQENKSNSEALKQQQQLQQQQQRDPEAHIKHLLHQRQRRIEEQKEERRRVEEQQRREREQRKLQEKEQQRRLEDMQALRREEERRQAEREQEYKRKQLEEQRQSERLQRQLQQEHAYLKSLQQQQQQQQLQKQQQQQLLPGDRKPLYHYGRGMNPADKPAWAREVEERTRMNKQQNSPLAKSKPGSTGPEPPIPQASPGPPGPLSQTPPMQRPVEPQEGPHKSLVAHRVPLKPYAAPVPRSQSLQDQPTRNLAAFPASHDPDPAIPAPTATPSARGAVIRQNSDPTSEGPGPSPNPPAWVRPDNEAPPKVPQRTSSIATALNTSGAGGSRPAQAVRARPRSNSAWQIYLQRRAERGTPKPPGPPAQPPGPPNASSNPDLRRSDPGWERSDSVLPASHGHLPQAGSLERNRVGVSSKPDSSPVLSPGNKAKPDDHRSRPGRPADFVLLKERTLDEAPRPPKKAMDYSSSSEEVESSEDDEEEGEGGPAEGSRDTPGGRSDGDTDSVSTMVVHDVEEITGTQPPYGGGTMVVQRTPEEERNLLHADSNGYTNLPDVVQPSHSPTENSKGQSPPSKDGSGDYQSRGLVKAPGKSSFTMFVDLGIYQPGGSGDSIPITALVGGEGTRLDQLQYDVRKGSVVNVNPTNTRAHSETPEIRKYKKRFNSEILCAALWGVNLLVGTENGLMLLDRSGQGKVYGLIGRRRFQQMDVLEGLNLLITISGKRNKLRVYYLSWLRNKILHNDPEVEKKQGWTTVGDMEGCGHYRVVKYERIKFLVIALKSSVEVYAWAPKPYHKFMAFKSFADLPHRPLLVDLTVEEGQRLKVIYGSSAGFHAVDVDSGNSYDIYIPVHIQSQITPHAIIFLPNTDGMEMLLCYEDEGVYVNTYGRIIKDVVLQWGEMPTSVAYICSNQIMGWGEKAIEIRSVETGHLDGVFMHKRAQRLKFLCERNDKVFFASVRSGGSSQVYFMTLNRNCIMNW
Chain of Myosin light chain kinase 2, skeletal/cardiac muscle (Homo sapiens) (Q9H1R3 whole entry): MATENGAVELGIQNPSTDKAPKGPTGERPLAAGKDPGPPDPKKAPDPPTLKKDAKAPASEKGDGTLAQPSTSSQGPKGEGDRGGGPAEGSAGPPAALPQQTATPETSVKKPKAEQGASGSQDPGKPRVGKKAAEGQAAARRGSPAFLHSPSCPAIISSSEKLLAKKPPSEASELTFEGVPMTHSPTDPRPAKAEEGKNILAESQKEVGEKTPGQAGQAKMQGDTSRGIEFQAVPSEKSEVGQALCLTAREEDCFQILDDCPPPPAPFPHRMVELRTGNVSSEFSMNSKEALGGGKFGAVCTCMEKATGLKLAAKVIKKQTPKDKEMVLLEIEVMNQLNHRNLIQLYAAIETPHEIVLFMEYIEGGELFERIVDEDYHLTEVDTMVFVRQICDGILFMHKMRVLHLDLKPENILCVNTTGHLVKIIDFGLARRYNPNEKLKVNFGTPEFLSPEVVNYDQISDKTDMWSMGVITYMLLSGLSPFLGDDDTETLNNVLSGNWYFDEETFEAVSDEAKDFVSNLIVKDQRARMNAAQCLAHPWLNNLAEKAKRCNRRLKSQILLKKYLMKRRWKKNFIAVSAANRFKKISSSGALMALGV
Chain of Calcium/calmodulin-dependent protein kinase type 1D (Homo sapiens) (Q8IU85 whole entry, looked up): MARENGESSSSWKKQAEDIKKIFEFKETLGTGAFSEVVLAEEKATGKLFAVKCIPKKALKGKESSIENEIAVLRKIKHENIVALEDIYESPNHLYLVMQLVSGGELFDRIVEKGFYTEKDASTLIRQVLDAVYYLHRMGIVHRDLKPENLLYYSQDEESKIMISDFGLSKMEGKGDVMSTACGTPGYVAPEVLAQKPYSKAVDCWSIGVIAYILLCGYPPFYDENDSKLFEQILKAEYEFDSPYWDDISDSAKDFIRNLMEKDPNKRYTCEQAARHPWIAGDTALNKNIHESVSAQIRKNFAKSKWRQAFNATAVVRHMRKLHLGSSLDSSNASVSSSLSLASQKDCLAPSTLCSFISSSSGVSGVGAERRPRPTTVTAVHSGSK
Chain of Serine/threonine-protein kinase SIK1 (Homo sapiens) (P57059 whole entry): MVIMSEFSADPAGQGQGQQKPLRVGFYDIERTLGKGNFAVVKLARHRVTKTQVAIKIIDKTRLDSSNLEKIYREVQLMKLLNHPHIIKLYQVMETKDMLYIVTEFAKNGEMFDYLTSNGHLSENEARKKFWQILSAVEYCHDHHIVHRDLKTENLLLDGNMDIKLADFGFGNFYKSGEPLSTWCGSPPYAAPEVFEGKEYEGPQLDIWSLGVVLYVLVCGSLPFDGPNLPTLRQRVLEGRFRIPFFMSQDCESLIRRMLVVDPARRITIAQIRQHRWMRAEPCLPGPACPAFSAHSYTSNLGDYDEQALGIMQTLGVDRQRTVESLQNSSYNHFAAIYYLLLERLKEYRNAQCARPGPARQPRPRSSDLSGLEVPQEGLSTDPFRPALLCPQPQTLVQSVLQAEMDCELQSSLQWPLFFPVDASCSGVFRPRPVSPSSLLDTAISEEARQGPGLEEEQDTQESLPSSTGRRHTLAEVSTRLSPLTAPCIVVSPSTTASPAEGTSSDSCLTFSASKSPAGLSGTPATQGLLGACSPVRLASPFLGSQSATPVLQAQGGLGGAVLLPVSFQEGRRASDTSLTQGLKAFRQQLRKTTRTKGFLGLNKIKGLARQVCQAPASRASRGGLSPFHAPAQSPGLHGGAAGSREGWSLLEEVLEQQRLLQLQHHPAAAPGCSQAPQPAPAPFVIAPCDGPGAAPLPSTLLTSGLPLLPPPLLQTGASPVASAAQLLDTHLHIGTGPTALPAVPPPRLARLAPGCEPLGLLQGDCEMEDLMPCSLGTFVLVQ

Take `Cc1nc(C2CCN(C(=O)c3ccc(OC(F)(F)F)cc3N)CC2)c2ncc(N3CCN(C)CC3)cc2n1` [BAY-693]: the residual activity is 100% in assay [1]; 100% in assay [2]; 91% in [3]; 83% in assay [4]; 95% in [5]; 84% in assay [6]. Besides, the residual activity is 93% in assay [7]; 93% in assay [8]; 87% in [9]; 77% in assay [10]; 90% in assay [11]; 100% in assay [12]. Also, the inhibition in [13] was -2.17%; in [14], 4.99%; in assay [15], 23.6%; in assay [16], 72.7%.
As for `CN1CCN(c2cnc3c(C4CCN(C(=O)c5ccc(OC(F)(F)F)cc5N)CC4)ncnc3c2)CC1` [BAY-885], the residual activity in assay [1] is 100%; in [2], 89%; in [3], 100%; in assay [4] it was 100%; in [5] it was 95%; in [6] it was 100%. Besides, the residual activity in assay [7] was 85%; in assay [8], 85%; in assay [9], 85%; in [10], 83%; in [11], 96%; in [12], 92%. Also, the inhibition in [13] is 16%; in [14] it was 14.6%; in [15], 31.2%; in assay [16], 72.4%.
